Data from ChEMBL document CHEMBL5465560, “Selectivity Literature for EUbOPEN Chemogenomic Library” (2024).
Values belong to the compound of their own block, whether it stands above or below them.

Legend:
[1] = biological target: Serine/threonine-protein kinase WNK3 (Homo sapiens) (UniProt Q9BYP7); test: Selectivity interaction (Ambit KINOMEscan and KiNATiv profiling in Jurkat cells) EUB0000090b WNK3; assay type: cell-based; conditions: at 1 µM
[2] = biological target: Calcium/calmodulin-dependent protein kinase type II subunit alpha (Homo sapiens, UniProt Q9UQM7); test: Selectivity interaction (Kinase panel (literature)) EUB0001199aCl CAMK2A; conditions: at 1 µM
Calcium/calmodulin-dependent protein kinase type II subunit alpha, sequence (Q9UQM7 whole entry): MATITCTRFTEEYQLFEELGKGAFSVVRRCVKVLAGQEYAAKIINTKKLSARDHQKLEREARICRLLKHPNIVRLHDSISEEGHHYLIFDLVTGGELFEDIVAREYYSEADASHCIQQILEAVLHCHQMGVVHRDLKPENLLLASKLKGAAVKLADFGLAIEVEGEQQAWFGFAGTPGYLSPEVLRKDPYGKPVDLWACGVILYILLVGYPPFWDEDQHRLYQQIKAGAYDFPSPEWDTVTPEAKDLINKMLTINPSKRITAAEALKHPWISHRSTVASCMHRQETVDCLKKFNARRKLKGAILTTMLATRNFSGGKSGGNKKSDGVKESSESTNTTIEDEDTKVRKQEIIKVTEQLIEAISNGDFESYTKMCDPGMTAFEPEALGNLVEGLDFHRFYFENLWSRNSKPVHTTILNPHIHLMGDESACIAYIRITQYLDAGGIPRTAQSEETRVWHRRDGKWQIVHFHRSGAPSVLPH

[3] = biological target: Mitogen-activated protein kinase 7 (Homo sapiens) (UniProt Q13164); test: Selectivity interaction (KinomeScan (DiscoverX)) EUB0000655a MAPK7; conditions: at 10 µM
Mitogen-activated protein kinase 7 (Homo sapiens), sequence (Q13164 2-816 limits assumed): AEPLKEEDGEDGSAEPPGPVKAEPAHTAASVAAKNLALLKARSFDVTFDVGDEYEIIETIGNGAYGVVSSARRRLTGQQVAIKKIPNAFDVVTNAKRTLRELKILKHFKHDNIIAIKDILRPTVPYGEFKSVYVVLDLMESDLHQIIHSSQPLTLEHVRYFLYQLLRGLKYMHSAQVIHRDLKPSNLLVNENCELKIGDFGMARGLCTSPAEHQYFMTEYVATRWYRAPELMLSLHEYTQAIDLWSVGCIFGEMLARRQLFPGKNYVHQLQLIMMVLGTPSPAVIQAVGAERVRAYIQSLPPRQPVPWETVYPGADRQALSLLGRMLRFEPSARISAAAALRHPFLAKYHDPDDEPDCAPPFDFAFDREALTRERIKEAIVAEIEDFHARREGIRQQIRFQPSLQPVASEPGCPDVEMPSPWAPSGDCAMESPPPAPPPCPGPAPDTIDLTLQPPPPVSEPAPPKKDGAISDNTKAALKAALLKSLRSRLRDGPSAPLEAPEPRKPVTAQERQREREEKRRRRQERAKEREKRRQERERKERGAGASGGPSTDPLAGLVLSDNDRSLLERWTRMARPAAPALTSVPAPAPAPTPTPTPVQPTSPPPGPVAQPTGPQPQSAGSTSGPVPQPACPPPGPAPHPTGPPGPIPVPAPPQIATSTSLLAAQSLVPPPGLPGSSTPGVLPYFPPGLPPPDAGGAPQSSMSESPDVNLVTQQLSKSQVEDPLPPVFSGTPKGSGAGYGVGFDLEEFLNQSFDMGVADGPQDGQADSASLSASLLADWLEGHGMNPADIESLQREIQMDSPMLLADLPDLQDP

[4] = biological target: Insulin-like growth factor 1 receptor (Homo sapiens, UniProt P08069); test: Selectivity interaction (KinomeScan (DiscoverX)) EUB0000607a IGF1R; conditions: at 10 µM
[5] = biological target: T1, Serine/threonine-protein kinase STK11 (Homo sapiens) (UniProt Q15831); test: Selectivity interaction (ActivX KiNativ screen (ex vivo kinase selectivity in human PBMCs)) EUB0001619a STK11; assay type: cell-based; conditions: PBMC, at 1 µM
T1 sequence (whole entry): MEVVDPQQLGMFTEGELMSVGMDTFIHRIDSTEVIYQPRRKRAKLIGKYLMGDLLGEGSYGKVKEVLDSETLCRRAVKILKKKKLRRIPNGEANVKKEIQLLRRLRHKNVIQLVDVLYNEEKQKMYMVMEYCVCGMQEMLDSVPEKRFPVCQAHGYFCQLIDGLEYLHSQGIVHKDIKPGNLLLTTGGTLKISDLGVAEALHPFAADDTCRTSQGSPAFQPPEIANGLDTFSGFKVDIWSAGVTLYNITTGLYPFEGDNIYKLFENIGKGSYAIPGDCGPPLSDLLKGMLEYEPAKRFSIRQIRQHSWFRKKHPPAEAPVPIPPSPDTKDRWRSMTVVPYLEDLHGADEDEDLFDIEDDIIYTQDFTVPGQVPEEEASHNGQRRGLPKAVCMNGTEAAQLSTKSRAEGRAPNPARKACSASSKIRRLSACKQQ

[6] = biological target: Serine/threonine-protein kinase 25 (Homo sapiens) (UniProt O00506); test: Selectivity interaction (ActivX KiNativ screen (ex vivo kinase selectivity in human PBMCs)) EUB0001619a STK25; assay type: cell-based; conditions: PBMC, at 1 µM
Serine/threonine-protein kinase 25 (Homo sapiens), sequence (O00506 whole entry, looked up): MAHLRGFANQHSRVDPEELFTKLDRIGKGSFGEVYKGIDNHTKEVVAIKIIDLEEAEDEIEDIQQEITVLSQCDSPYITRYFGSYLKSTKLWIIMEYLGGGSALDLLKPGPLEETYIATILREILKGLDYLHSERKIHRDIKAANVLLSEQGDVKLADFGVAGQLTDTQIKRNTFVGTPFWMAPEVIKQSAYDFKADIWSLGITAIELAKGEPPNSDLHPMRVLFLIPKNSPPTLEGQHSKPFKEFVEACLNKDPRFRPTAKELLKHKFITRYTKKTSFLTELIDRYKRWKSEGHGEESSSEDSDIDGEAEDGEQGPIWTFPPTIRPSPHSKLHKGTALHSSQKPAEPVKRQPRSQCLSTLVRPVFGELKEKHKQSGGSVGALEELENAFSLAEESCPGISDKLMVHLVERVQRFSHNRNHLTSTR

[7] = biological target: T2, Ephrin type-A receptor 8 (Homo sapiens) (UniProt P29322); conditions: at 10 µM
T2 sequence (whole entry): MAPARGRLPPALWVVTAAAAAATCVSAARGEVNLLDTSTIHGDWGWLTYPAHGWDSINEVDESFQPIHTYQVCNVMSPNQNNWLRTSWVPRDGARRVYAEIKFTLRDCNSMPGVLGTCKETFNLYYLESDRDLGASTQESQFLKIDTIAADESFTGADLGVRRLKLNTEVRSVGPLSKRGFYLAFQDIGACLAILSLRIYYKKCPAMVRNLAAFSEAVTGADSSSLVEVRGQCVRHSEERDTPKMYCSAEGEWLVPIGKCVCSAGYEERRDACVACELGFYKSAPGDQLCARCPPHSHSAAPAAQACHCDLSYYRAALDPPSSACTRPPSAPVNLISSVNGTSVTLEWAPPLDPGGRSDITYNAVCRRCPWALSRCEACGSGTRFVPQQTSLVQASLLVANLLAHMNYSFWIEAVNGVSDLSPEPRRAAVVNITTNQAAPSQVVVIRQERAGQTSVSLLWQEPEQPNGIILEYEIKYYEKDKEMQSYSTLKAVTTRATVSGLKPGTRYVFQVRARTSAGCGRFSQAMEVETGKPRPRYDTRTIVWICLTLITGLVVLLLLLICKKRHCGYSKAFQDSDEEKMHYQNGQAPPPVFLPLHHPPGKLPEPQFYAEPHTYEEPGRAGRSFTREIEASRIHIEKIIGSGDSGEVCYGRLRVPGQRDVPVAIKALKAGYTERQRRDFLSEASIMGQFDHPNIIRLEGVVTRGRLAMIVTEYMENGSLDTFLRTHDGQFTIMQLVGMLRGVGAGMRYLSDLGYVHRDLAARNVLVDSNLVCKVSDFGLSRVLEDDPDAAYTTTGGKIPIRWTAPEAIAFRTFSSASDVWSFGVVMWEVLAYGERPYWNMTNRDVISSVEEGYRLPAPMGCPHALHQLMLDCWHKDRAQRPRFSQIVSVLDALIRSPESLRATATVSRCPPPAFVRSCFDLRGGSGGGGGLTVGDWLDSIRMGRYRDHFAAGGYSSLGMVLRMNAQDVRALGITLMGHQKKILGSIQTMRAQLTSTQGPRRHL

[8] = biological target: Protein arginine N-methyltransferase 6 (Homo sapiens, UniProt Q96LA8); test: Selectivity interaction (Transferase panel (protein, RNA, and DNA methyltransferases. and EP300 (acetyltransferase))) EUB0000270b PRMT6
Protein arginine N-methyltransferase 6, sequence (Q96LA8 whole entry, looked up): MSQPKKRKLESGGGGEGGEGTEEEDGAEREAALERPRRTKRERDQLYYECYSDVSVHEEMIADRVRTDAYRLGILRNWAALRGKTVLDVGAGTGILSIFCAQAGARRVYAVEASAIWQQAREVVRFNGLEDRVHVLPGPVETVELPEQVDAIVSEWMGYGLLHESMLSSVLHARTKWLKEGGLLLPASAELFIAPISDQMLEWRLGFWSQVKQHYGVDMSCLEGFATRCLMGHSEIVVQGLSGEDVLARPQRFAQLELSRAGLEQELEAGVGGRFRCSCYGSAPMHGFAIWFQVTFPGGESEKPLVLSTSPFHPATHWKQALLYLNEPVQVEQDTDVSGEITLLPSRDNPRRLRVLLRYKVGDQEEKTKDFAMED

[9] = biological target: T3, Protein kinase C epsilon type (Homo sapiens) (UniProt Q02156); test: Selectivity interaction (KinomeScan (DiscoverX)) EUB0001049a PRKCE; conditions: at 1 µM
T3 sequence (whole entry): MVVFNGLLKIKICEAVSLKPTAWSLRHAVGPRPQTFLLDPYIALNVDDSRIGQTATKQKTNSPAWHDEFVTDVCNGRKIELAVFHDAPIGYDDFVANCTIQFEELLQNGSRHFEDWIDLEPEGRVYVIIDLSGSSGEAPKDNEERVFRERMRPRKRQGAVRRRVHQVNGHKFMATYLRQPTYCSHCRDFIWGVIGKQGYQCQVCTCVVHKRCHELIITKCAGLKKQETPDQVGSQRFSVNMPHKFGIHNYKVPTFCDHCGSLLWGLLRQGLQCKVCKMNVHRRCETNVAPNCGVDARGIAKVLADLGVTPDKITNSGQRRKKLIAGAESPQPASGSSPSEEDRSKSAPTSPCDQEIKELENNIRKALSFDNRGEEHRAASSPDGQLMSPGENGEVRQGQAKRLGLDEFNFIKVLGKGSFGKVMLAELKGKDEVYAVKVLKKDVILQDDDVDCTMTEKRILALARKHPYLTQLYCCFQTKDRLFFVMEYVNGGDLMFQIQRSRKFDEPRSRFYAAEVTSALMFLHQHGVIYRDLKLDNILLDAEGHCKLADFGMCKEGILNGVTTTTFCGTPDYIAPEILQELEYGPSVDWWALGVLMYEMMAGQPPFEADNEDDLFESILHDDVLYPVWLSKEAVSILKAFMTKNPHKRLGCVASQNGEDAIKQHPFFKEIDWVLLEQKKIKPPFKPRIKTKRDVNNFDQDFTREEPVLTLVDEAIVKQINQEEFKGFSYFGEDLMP

Serine/threonine-protein kinase WNK3 (Homo sapiens), sequence (Q9BYP7 whole entry): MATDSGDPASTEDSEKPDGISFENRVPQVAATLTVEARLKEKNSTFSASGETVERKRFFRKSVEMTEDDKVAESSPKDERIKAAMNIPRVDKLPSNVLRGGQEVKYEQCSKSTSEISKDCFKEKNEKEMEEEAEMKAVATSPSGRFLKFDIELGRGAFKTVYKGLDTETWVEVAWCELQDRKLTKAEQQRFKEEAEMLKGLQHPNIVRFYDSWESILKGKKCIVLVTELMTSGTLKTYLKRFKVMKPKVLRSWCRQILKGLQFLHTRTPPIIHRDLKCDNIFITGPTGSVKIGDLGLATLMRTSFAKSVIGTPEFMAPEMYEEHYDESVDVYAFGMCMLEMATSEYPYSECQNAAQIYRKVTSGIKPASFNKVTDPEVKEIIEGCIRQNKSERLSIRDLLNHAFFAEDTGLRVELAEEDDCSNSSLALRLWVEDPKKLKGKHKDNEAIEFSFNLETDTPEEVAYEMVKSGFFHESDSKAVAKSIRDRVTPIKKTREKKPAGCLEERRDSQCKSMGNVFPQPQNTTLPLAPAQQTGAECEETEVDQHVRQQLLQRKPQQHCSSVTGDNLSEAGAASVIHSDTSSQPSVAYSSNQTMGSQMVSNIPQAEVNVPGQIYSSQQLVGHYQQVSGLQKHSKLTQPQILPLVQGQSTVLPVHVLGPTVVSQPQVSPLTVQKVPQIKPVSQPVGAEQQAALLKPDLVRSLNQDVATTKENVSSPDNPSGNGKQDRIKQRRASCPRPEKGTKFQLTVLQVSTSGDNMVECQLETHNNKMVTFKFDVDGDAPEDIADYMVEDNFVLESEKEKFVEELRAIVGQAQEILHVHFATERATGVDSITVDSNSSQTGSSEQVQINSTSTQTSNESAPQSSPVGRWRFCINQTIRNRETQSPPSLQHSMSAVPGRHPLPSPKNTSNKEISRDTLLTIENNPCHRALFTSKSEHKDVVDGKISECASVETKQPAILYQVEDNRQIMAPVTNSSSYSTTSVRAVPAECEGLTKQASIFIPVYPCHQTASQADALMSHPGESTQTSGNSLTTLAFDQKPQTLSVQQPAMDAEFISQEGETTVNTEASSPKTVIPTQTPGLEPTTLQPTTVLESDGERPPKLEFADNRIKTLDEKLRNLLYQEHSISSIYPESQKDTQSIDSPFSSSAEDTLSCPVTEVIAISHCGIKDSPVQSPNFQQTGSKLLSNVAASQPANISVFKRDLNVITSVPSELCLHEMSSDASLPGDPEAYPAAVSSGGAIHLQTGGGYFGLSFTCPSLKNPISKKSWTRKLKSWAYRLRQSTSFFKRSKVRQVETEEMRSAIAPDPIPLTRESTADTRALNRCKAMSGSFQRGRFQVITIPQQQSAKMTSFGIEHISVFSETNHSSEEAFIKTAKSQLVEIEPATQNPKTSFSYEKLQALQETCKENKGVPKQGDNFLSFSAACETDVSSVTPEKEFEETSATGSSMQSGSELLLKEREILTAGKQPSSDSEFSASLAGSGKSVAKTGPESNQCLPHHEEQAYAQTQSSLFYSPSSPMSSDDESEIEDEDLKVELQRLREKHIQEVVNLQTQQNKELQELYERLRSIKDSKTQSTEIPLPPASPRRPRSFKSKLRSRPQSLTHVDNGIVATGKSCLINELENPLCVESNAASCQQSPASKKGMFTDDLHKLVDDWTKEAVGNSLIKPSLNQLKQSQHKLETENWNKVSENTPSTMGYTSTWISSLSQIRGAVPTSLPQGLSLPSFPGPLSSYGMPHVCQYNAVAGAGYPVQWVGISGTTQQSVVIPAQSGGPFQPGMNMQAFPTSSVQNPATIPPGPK

Structure (SMILES): CN(C)C/C=C/C(=O)Nc1ccc(C(=O)N2CCCC(Nc3ncc(Cl)c(-c4c[nH]c5ccccc45)n3)C2)cc1 (stereo not given)
- % of control [1]: 89%

- % of inhibition [2]: 10%
Structure (SMILES): CN1Cc2nccc(-c3cn(C)nc3-c3ccc(F)cc3)c2C1=O

Structure (SMILES): CN(C)CCOc1ccc(-c2nc(-c3ccncc3)c(-c3ccc4c(c3)CC/C4=N\O)[nH]2)cc1
- % of control [3]: 97%

Structure (SMILES): CNC(=O)Nc1ccc(-c2nc(N3CC4CCC(C3)O4)c3cnn(C4CCC5(CC4)OCCO5)c3n2)cc1
- % of control [4]: 93%

Structure (SMILES): N#Cc1cccc(-c2c[nH]c3ncnc(N4CCOCC4)c23)c1
- % of inhibition [5]: 17%
- % of inhibition [6]: 61%

Structure (SMILES): Cc1cc([C@@H](C)Nc2ccccc2C(=O)O)c2nc(N3CCOCC3)cc(=O)n2c1 [AZD-6482]
- % of control [7]: 96%

- % activity ([8]; at 1 µM): > 90%
- % activity ([8]; at 10 µM): > 80%
Structure (SMILES): Cc1cc(CN)cc(C)c1-c1ncn(C)c1-c1cncn1C

Structure (SMILES): COc1cc(Nc2nc(C)cc(-c3cnn4nc(OC)ccc34)n2)cc(C(F)(F)F)c1
- % of control [9]: 100%
